# What was measured:
# [1] = tested on: Human Promyelocytic Leukaemia HL-60 Cells; experiment: Cyto-fluorometric cell cycle analysis, HL-60; type: cell-based; conditions: for APOPTOSIS / G0/G1 / G2 + M / S: 3 days; for G0/G1 / G2 + M / S: percentage of cell cycle phase
# Experimental: To evaluate the effect of the compound according to the invention, on various phases of the cell cycle, cyto-fluorometric cell cycle analyses were performed.
# HL60 or NB4 cells were seeded onto plates at a density of 150.000 cells/ml in RPMI 1640 medium containing 10% FCS, the test compound (ST 1926) was added, […], in the presence or absence of sub-optimal doses of ATRA (5-10 nM for NB4 and 0.5 μM for HL60) in the dark and placed in an incubator for 3 days without changing the culture medium.
# On the third day of treatment 500.000 cells were sampled, centrifuged at 180×g for 5 minutes, washed twice in calcium and magnesium free PBS. The cells (1×10^6/ml of fixative) were fixed for at least 1 hour in a fixation mixture comprised of acetone/methanol 1:4 v/v maintained at −20° C. and 50% of calcium and magnesium free PBS; then the cells were centrifuged, washed in calcium and magnesium free PBS, and again centrifuged and washed. The cellular precipitate was incubated for 30 minutes in the dark at room temperature with 200 μl of […] (100 μg/ml) and 200 μl of RNAse (150 KU/mg).
# The samples with filtered through nylon filters (60-80 μm diameter) and analysed by cyto-fluorimeter FACScan (Becton Dickinson), acquiring 20000 events/sample, at an excitation wavelength of 488 nm and emission wavelength of 620 nm. The analysis of the percentages of the cell cycle phases was performed using a dedicated software package, Modfit v. 2.0 (Becton Dickinson).
# [2] = tested on: multidrug-resistant human ovarian carcinoma A2780/Dx; experiment: Antitumoral activity in human ovarian carcinoma model A2780/Dx; type: in vivo, CD1 nu/nu mice; conditions: qdx5x3w
# Experimental: (§1) The human ovarian carcinoma cells A2780, A2780/Dx and NCIH460 were maintained in RPMI-1640 containing 10% FCS, 2 mM glutamine, 50 μg/ml gentamicin, at 37° C. in a humidified atmosphere containing 5% CO2. The cells were trypsinised, collected in complete medium, centrifuged at approx. 1100 rpm for 10 minutes and the precipitate resuspended in Hank's 199 Medium; this operation was carried out twice. The cells were resuspended in Hank's 199 Medium at a density of 20×10^6/ml and 0.1 ml (equal to 2×10^6 cells/mouse) were injected s.c. into the right flank of CD1 nu/nu 6 week-old, female mice.
# (§2) The ST1926 solution was prepared immediately before use and solubilised in cremophor:ethanol 1:1 and subsequently diluted 1:4 in buffered saline solution. The animal treatments were administered in a volume of 10 ml/kg. The treatment protocol for ST1926 at different doses was for 5 consecutive days (qd×5), beginning one day following tumor cell inoculation and repeated for 3 cycles. Measurements of tumor dimensions were performed using a digital calliper (Vernier Caliper) twice weekly, from the time in which the mass was measurable. The tumor mass was evaluated from the size of the two principal dimensions (length and breadth), expressed in mm, applying the formula (length×breadth^2)/2, that is, the tumor volume in mm3. For each experimental group, the percentage of tumor volume inhibition was calculated (TVI %), with respect to the control, namely (100−(T/C %). TVI was evaluated 2 days after the final administration of ST1926.
# (§3) The mice were measured until the control group tumors had reached a weight of 2 g, then the mice were sacrificed by cervical dislocation.
# (§4) A comparison between the TVI values obtained for each group was performed using the non parametric Mann Whitney test for non-paired data, using the Instat software from GraphPad inc.
# (§5) The mice were weighed prior to each treatment, firstly, so as to be able to administer the correct quantity of substance based on the possible changes in weight observed throughout the course of administration of the drug, and also to record the maximum weight loss throughout the treatment (BWL % max).
# [3] = tested on: human ovarian carcinoma A2780; experiment: Antitumoral activity in human ovarian carcinoma model A2780; type: in vivo, CD1 nu/nu mice; conditions: qdx5x3w
# Experimental: as §1, §2, §3, §4, §5
smiles,measurement,setting,value
"O=C(O)/C=C/c1ccc(-c2ccc(O)c(C34CC5CC(CC(C5)C3)C4)c2)cc1 [ST1926, E-4-(3-(1-adamantyl)-4-hydroxyphenyl)cinnamic acid]",APOPTOSIS,"[1]; HL-60, 0.0025 μM",8
same,G0/G1,"[1]; HL-60, 0.0025 μM",54.9
same,G2 + M,"[1]; HL-60, 0.0025 μM",11.7
same,S,"[1]; HL-60, 0.0025 μM",33.4
same,APOPTOSIS,"[1]; HL-60, 0.005 μM",14.0
same,G0/G1,"[1]; HL-60, 0.005 μM",53.4
same,G2 + M,"[1]; HL-60, 0.005 μM",12.2
same,S,"[1]; HL-60, 0.005 μM",34.4
same,APOPTOSIS,"[1]; HL-60, 0.01 μM",12.5
same,G0/G1,"[1]; HL-60, 0.01 μM",52.0
same,G2 + M,"[1]; HL-60, 0.01 μM",12.6
same,S,"[1]; HL-60, 0.01 μM",35.4
same,APOPTOSIS,"[1]; HL-60, 0.05 μM",13.0
same,G0/G1,"[1]; HL-60, 0.05 μM",45.0
same,G2 + M,"[1]; HL-60, 0.05 μM",13.0
same,S,"[1]; HL-60, 0.05 μM",42.0
same,APOPTOSIS,"[1]; HL-60, 0.1 μM",27.5
same,G0/G1,"[1]; HL-60, 0.1 μM",39.9
same,G2 + M,"[1]; HL-60, 0.1 μM",13.3
same,S,"[1]; HL-60, 0.1 μM",46.8
same,APOPTOSIS,"[1]; HL-60, 0.5 μM",82
same,APOPTOSIS,"[1]; HL-60, 1 μM",86.5
same,effect on HL-60 cells (in words),"[1]; HL-60, 0.5 and 1 μM, three days, cell cycle not measurable",strong pro-apoptotic effect
same,BWL % Max,[2]; 10 mg/kg po,0%
same,Lethality,[2]; 10 mg/kg po,0/8
same,TVI % ± SE,[2]; 10 mg/kg po,*34 ± 3%
same,BWL % Max,[2]; 15 mg/kg po,6%
same,Lethality,[2]; 15 mg/kg po,0/8
same,TVI % ± SE,[2]; 15 mg/kg po,*54 ± 9%
same,BWL % Max,"[3]; A2780, 5 mg/kg p.o.",3%
same,Lethality,"[3]; A2780, 5 mg/kg p.o.",0/8
same,TVI % ± SE,"[3]; A2780, 5 mg/kg p.o.",*34 ± 8%
same,BWL % Max,"[3]; A2780, 10 mg/kg p.o.",5%
same,Lethality,"[3]; A2780, 10 mg/kg p.o.",0/8
same,TVI % ± SE,"[3]; A2780, 10 mg/kg p.o.",*39 ± 5%
